Experimental data reported in PubChem BioAssay AID248 (DTP/NCI, 2004).
Values joined by “and” are separate entries in the source; they are usually repeats but may differ in a detail not shown here. Equal values may be shown once. Toxic doses and inconclusive results are not listed. Square brackets hold non-standard residues; d marks the D form. Peptide text beside a SMILES is read from it. * marks the point of attachment. ξ: configuration not given here. Octanoyl = CCCCCCCC(=O)*; OBn = c1ccc(CO*)cc1; ξP = O=C(O)C1CCCN1

Tested on: L1210 leukemia ip in BDF1 mice, survival T/C
Assay: NCI In Vivo Anticancer Drug Screen. Data for tumor model L1210 Leukemia (intraperitoneal) in B6D2F1 (BDF1) mice
Settings: endpoint: mean survival time, higher = longer survival
Method in brief: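 Mice bearing the transplanted tumor received compound or vehicle. Survival of the treated group was divided by that of the vehicle-treated control group to give the ratio.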

[1] = dose: 12.5 mg/kg/injection, schedule: Q04DX003 (ip), vehicle: saline
[2] = dose: 50.0 mg/kg/injection, schedule: Q01DX009 (ip), vehicle: saline
[3] = dose: 100.0 mg/kg/injection, schedule: Q01DX001 (ip), vehicle: other
[4] = dose: 200.0 mg/kg/injection, schedule: Q01DX001 (ip), vehicle: other
[5] = dose: 100.0 mg/kg/injection, schedule: Q01DX001 (ip), vehicle: saline
[6] = dose: 200.0 mg/kg/injection, schedule: Q01DX001 (ip), vehicle: saline
[7] = dose: 400.0 mg/kg/injection, schedule: Q01DX001 (ip), vehicle: saline

N#Cc1ccc[n+](Cc2ccc3c(c2)OCO3)c1
T/C (dose: 75.0 mg/kg/injection, schedule: Q01DX001 (ip), vehicle: saline): 106 % of control
T/C (dose: 150.0 mg/kg/injection, schedule: Q01DX001 (ip), vehicle: saline): 106 % of control

NCC(c1ccccc1)c1ccccc1
T/C (dose: 1.25 mg/kg/injection, schedule: Q01DX009 (ip), vehicle: saline): 103 % of control
T/C [1]: 98 % of control
T/C (dose: 25.0 mg/kg/injection, schedule: Q01DX009 (ip), vehicle: saline): 98 % of control
T/C (dose: 25.0 mg/kg/injection, schedule: Q04DX003 (ip), vehicle: saline): 98 % of control
T/C [2]: 95 % of control
T/C (dose: 50.0 mg/kg/injection, schedule: Q04DX003 (ip), vehicle: saline): 102 % of control

CSc1nc2c(n1-c1ccccc1)C(=O)C(OS(=O)(=O)c1ccccc1)C(=O)N2 (configuration not stated)
T/C (dose: 75.0 mg/kg/injection, schedule: Q01DX001 (ip), vehicle: saline with Tween-80): 95 % of control
T/C (dose: 150.0 mg/kg/injection, schedule: Q01DX001 (ip), vehicle: saline with Tween-80): 98 % of control
T/C (dose: 300.0 mg/kg/injection, schedule: Q01DX001 (ip), vehicle: saline with Tween-80): 98 % of control

CCCCCCCC(=O)N1CCCC1C(=O)NCC(=O)NCC(=O)OCc1ccccc1 (stereo not drawn) (Octanoyl-[ξP]-Gly-Gly-OBn)
T/C (dose: 100.0 mg/kg/injection, schedule: Q04DX002 (ip), vehicle: Klucel (hydroxypropylcellulose) (HPC)): 94 % of control
T/C (dose: 200.0 mg/kg/injection, schedule: Q04DX002 (ip), vehicle: Klucel (hydroxypropylcellulose) (HPC)): 86 % of control
T/C (dose: 400.0 mg/kg/injection, schedule: Q04DX002 (ip), vehicle: Klucel (hydroxypropylcellulose) (HPC)): 105 % of control

COc1ccc2[nH]c(=O)ccc2c1
T/C (dose: 300.0 mg/kg/injection, schedule: Q01DX001 (ip), vehicle: Klucel (hydroxypropylcellulose) (HPC)): 98 % of control

CC1(C)SC(C)(C)C1=O
T/C (dose: 50.0 mg/kg/injection, schedule: Q04DX002 (ip), vehicle: gum acacia): 100 % of control
T/C (dose: 100.0 mg/kg/injection, schedule: Q04DX002 (ip), vehicle: gum acacia): 96 % of control
T/C (dose: 200.0 mg/kg/injection, schedule: Q04DX002 (ip), vehicle: gum acacia): 107 % of control

CC(C)(C)NC=O
T/C [2]: 98 % of control
T/C (dose: 75.0 mg/kg/injection, schedule: Q01DX009 (ip), vehicle: saline): 93 % of control
T/C (dose: 75.0 mg/kg/injection, schedule: Q04DX003 (ip), vehicle: saline): 106 % of control
T/C (dose: 150.0 mg/kg/injection, schedule: Q04DX003 (ip), vehicle: saline): 96 % of control

O=[N+]([O-])c1cc(Cl)c(O)c(Cl)c1Cl
T/C (dose: 25.0 mg/kg/injection, schedule: Q01DX009 (ip), vehicle: acetone): 97 % of control
T/C (dose: 50.0 mg/kg/injection, schedule: Q01DX009 (ip), vehicle: acetone): 97 % of control
T/C (dose: 50.0 mg/kg/injection, schedule: Q04DX003 (ip), vehicle: acetone): 95 % of control
T/C (dose: 100.0 mg/kg/injection, schedule: Q01DX001 (ip), vehicle: acetone): 102 % of control
T/C (dose: 100.0 mg/kg/injection, schedule: Q01DX009 (ip), vehicle: acetone): 88 % of control
T/C (dose: 100.0 mg/kg/injection, schedule: Q04DX003 (ip), vehicle: acetone): 92 % of control
T/C (dose: 150.0 mg/kg/injection, schedule: Q01DX009 (ip), vehicle: saline): 90 % of control
T/C (dose: 200.0 mg/kg/injection, schedule: Q01DX001 (ip), vehicle: acetone): 100 % of control
T/C (dose: 225.0 mg/kg/injection, schedule: Q01DX009 (ip), vehicle: saline): 87 % of control

CC(=O)Oc1ccc2c(c1N=NN(C)C)CCC1C2CCC2(C)C(=O)CCC12 (configuration not stated)
T/C (dose: 100.0 mg/kg/injection, schedule: Q01DX001 (ip), vehicle: Klucel (hydroxypropylcellulose) (HPC)): 98 % of control
T/C (dose: 200.0 mg/kg/injection, schedule: Q01DX001 (ip), vehicle: Klucel (hydroxypropylcellulose) (HPC)): 104 % of control

CCCCCCCCCCCCCCCCCCNC(=S)N/N=C/c1ccc(Cl)cc1Cl
T/C (dose: 50.0 mg/kg/injection, schedule: Q04DX003 (ip), vehicle: other): 91 % of control
T/C [3]: 95 % of control
T/C (dose: 100.0 mg/kg/injection, schedule: Q04DX003 (ip), vehicle: other): 96 % of control
T/C [4]: 86 % of control and 92 % of control
T/C (dose: 200.0 mg/kg/injection, schedule: Q04DX003 (ip), vehicle: other): 93 % of control

FC(F)(F)c1ccc2c(c1)N(CCCN1CCN(CCC3OCCCO3)CC1)c1ccccc1S2
T/C (dose: 0.78 mg/kg/injection, schedule: Q04DX003 (ip), vehicle: saline): 102 % of control
T/C (dose: 1.56 mg/kg/injection, schedule: Q04DX003 (ip), vehicle: saline): 101 % of control
T/C (dose: 3.12 mg/kg/injection, schedule: Q04DX003 (ip), vehicle: saline): 102 % of control
T/C (dose: 6.25 mg/kg/injection, schedule: Q04DX003 (ip), vehicle: saline): 96 % of control
T/C [1]: 112 % of control

Cn1ncc2c(Cl)ncnc21
T/C [3]: 113 % of control
T/C [4]: 94 % of control
T/C (dose: 400.0 mg/kg/injection, schedule: Q01DX001 (ip), vehicle: other): 102 % of control

CC1C(C)(C)P(=O)(OCCOP2(=O)C(C)(C)C(C)C2(C)C)C1(C)C (configuration not stated)
T/C (dose: 100.0 mg/kg/injection, schedule: Q04DX003 (ip), vehicle: saline): 100 % of control
T/C (dose: 200.0 mg/kg/injection, schedule: Q04DX003 (ip), vehicle: saline): 94 % of control

O=C1CCCCC1Nc1ccc(Cl)cc1 (configuration not stated)
T/C (dose: 100.0 mg/kg/injection, schedule: Q01DX001 (ip), vehicle: carboxymethylcellulose (CMC)): 100 % of control
T/C (dose: 200.0 mg/kg/injection, schedule: Q01DX001 (ip), vehicle: carboxymethylcellulose (CMC)): 95 % of control
T/C (dose: 400.0 mg/kg/injection, schedule: Q01DX001 (ip), vehicle: carboxymethylcellulose (CMC)): 95 % of control

NNc1nncc(-c2ccccc2)n1
T/C (dose: 25.0 mg/kg/injection, schedule: Q01DX001 (ip), vehicle: other): 100 % of control
T/C (dose: 50.0 mg/kg/injection, schedule: Q01DX001 (ip), vehicle: other): 103 % of control
T/C [4]: 105 % of control

CCNc1nnc(N=Nc2ccccc2)s1
T/C (dose: 12.5 mg/kg/injection, schedule: Q01DX009 (ip), vehicle: saline with Tween-80): 97 % of control
T/C (dose: 25.0 mg/kg/injection, schedule: Q01DX009 (ip), vehicle: saline with Tween-80): 102 % of control and 92 % of control
T/C (dose: 50.0 mg/kg/injection, schedule: Q01DX009 (ip), vehicle: saline with Tween-80): 86 % of control
T/C (dose: 100.0 mg/kg/injection, schedule: Q01DX009 (ip), vehicle: saline with Tween-80): 91 % of control
T/C (dose: 100.0 mg/kg/injection, schedule: Q04DX002 (ip), vehicle: saline with Tween-80): 170 % of control
T/C (dose: 200.0 mg/kg/injection, schedule: Q04DX002 (ip), vehicle: saline with Tween-80): 98 % of control
T/C (dose: 400.0 mg/kg/injection, schedule: Q01DX009 (ip), vehicle: saline with Tween-80): 91 % of control
T/C (dose: 400.0 mg/kg/injection, schedule: Q04DX002 (ip), vehicle: saline with Tween-80): 98 % of control

CCCCCCCCCCCCCC[As](=O)(O)CCCCCCCCCCCCCC
T/C (dose: 50.0 mg/kg/injection, schedule: Q01DX001 (ip), vehicle: saline): 103 % of control
T/C [5]: 101 % of control
T/C [6]: 101 % of control
T/C [7]: 95 % of control

CCN(CC)CCCC(C)Nc1nc(/C=C/c2ccc(Cl)cc2)nc(Cl)c1-c1ccc(Cl)cc1 (configuration not stated)
T/C [5]: 89 % of control
T/C (dose: 100.0 mg/kg/injection, schedule: Q04DX003 (ip), vehicle: Klucel (hydroxypropylcellulose) (HPC)): 95 % of control
T/C [6]: 88 % of control
T/C (dose: 200.0 mg/kg/injection, schedule: Q04DX003 (ip), vehicle: Klucel (hydroxypropylcellulose) (HPC)): 101 % of control
T/C [7]: 96 % of control
T/C (dose: 400.0 mg/kg/injection, schedule: Q04DX003 (ip), vehicle: Klucel (hydroxypropylcellulose) (HPC)): 104 % of control
